Laboratory results taken from article PMC12970513, “Unsaturated Phosphorus Electrophiles to Probe Protein Tyrosine Phosphatases” (Angewandte Chemie (International Ed. in English), 2026).

Test system: PTP1B in MCF-7 cell lysate
Assay: Proteomic profiling (SP2E enrichment, LC-MS/MS), MCF-7 lysate
Parameters: species or system human
Settings: 500 µM SM-PO, vs DMSO
Description: Finally, we employed bottom‐up proteomics to validate that the labeled protein corresponds to the intended target PTP1B. For this, first MCF‐7 cell lysate (400 µg) was treated with 500 µM bio‐PO for 4 h. Directly afterwards, we applied a protocol described by the Kielkowski group, termed SP2E, which integrates protein purification with magnetic carboxyl‐coated beads and enrichment using magnetic streptavidin beads (Figure 5c). […] We reasoned that this might be due to the lower abundance of PTP1B in HEK293T compared to MCF‐7 lysate. Therefore, the protocol was repeated by doubling the proteome input to 800 µg. Following this minor adjustment, PTP1B was then enriched in our analysis (>4‐fold) (Figure 5e). […] However, this protein is included in the contamination repository for affinity purification (CRAPome) and appears in about half of such experiments as a contaminant. Given the comparably low PTP1B levels in Ramos lysate, we refrained from attempting pull‐down experiments from this cell line. […]
For proteome labelling using the SP2E workflow, a modified protocol by Becker et al. was followed.^[13] […] Tryptic peptides were eluted from the magnetic beads using a magnetic rack, samples were diluted and analyzed by qToF for purity i.e. absence of detergents and successful trypsin digestion. […]

SMILES: C#CP(=O)(O)Oc1ccc(CCNC(=O)CCCC[C@@H]2SC[C@@H]3NC(=O)N[C@@H]32)cc1 [SM-PO, 4-(2-biotinamidoethyl)phenyl ethynylphosphonic acid monoester]
- other proteins enriched by SM-PO: adipocyte plasma membrane–associated protein (APMAP) was identified among the enriched proteins
- enrichment of PTP1B or other phosphatases by SM-PO (enrichment >2 log2 fold change, p ≤ 0.05): neither PTP1B nor any other phosphatase was significantly enriched
